# Source: PMC7355430, “Imunofan—RDKVYR Peptide—Stimulates Skin Cell Proliferation and Promotes Tissue Repair” (Molecules, 2020)
# Several values for one entry are separate records, joined by “and”; a condition that tells them apart may be missing. Identical values can stand only once. Peptide text beside a SMILES is read from it.
# Columns and labels:
# patients = tested on: patients; design: method as in PMID 18475748; details: subcutaneous injection in patients, response to diphtheria toxoid vaccination; cited from earlier work
# BALB/c mice = test: Ear pinna injury, ear punch closure; format: in vivo, mouse
# Protocol: Experiments were performed on 8–12 week-old female BALB/c (24 mice in total) and C57BL/6 mice (36 mice in total). All mice originated from the Centre for Experimental Medicine of the Medical University of Białystok, Poland, and were kept in the animal facility at the Nencki Institute of Experimental Biology throughout the course of the study. After delivery to the Nencki Institute animal facility, mice rested for at least two weeks for acclimatization before starting the experiment. Experiments were approved by the First Local Ethics Committee in Warsaw (permit No. 491/2013 and 542/2018). Animal experimentation was performed in accordance with EU directive 2010/63/EU, and all experiments were undertaken in such a way as to minimize discomfort and the number of animals used in the study.
# Mice were placed individually in separate cages, weighed, and randomly divided into two groups within each mouse strain: The treatment group and the control group. Before the study all mice were randomly given numerical equivalents, and all experimenters performing further analysis were not aware of the experimental group and referred solely to those numbers. Similarly, vials containing IM (treatment) or saline (control) were encrypted and assigned to particular mice, so the person performing injections and ear photographs was not aware of mice background. Lastly, the person quantifying each ear hole closure was not aware of the group. Numerical equivalents of each mice were only decrypted at the end of the study. Before study each animal was anesthetized with Isoflurane (Iso-Vet; Piramal, UK), ears were quickly disinfected with 70% isopropanol and circular punches 2 mm in diameter were made in the center of both ear pinnae using disposable biopsy punches (Integra Miltex; Integra Life Sciences, Princeton, NJ, USA). Due to some occasional self-inflicted injuries (tearing off one or both ear lobes) during the course of the study, the measurement data from destroyed lobes were excluded from comparisons of the next time points. […]
# To monitor the progress of wound healing, ears were photographed on the day of the injury (day 0, before and right after pinna injury), and on days 7, 14, 21, 28, 35, and 42. […] Finally, the area of the wound hole was outlined by hand on digitized images as an overlay, and the hole areas in the ears were evaluated using computer-assisted image analysis (ImageJ Software). […] The final number of analyzed ears was 23 per group on day 42. […] The final number of analyzed ears on day 42 was 32 in the control group and 16 in the treatment group. […]
# CTL, Th and NK cells = test: Immune cell activation in PBMCs, flow cytometry; format: cell-based, human; details: 0.1 and 1.0 µg/mL, 48 h, 5 independent experiments
# Protocol: Immunological tests were conducted on human peripheral blood mononuclear cells, isolated from “buffy coats” using a ficoll density gradient (Histopaque, Sigma-Aldrich, St. Louis, MO, USA). Buffy coats for were obtained from blood of healthy anonymous donors of the Regional Center of Blood Donation and Blood Therapy in Gdansk, Poland. After washing in PBS, erythrocyte lysis, and cell counting (cell counter, Bio-Rad), the PBMCs were seeded onto a 24-well culture plate at a density of 10^6 cells/1 mL of RPMI 1640 (Penicillin/Streptomycin, 10% FBS) per well. After cell resting for 24 h, cells were stimulated with IM peptide (0.1 µg/mL and 1.0 µg/mL) for the next 48 h under appropriate conditions (37 °C, 5% CO2). The untreated cells were used as a negative control, whereas cells stimulated with LPS (1 µg/mL) and PHA (2.5 µg/mL) were a positive control. After incubation, the PBMCs were collected, washed with PBS, counted and prepared for flow cytometry analysis. 10^4 cells/100 µl were stained with monoclonal, fluorochrome-conjugated antibodies (anti-CD3, -CD4, -CD8, -CD16, -CD56, -CD25, -CD69, -CD71, -HLA-DR, -CD11c, -CD80, and -CD83) and incubated for 30 min in RT in the dark. Stained cells were analyzed using a flow cytometer (LSRFortessa, BD, USA). All data are presented as percentages due to the application of hospital diagnostic laboratory standards for immune cells analyses.
# [1] = Stability in human plasma; format: in vitro ADME; details: human plasma (EDTA)
# Protocol: A stability test in plasma was performed as previously described. Blood was collected from healthy anonymous donors and EDTA was then used as an anticoagulant. The plasma was aliquoted and incubated with IM peptide for 1, 2, 3, 6, and 24 h at 37 °C, at a final concentration of 300 µM. The analyses were performed by HPLC applying the conditions specified above.
# For calculations, peak areas were compared to a calibration curve calculated by LC solution Software (Shimadzu, Kyoto, Japan).
# basophils = test: Basophil activation test (BAT); format: cell-based, human; details: 0.1 µg/mL, whole blood of healthy volunteers, Flow CAST highsens; cut-off 5%; 7 independent experiments
# Protocol: The commercially available test Flow CAST® highsens (Bühlmann Laboratories, Schönenbuch, Switzerland) was used to perform BAT test on blood samples collected from healthy volunteers, who were not suffering from allergy, within 24 h of collection, according to the manufacturer’s protocol. Then, 100 µL of blood was incubated and IM peptide was added to the wells at a final concentration of 0.1 µg/mL. The cells were then stained with fluorochrome-stained monoclonal antibodies (anti-CD63, -CD203c, -CCR3) and incubated for 15 min at 37 °C. Then, erythrocyte lysis was performed, the cells were washed and analyzed by flow cytometry (BD FACSCanto II, San Jose, CA, USA). Each sample was accompanied by its own negative and positive control (anti-FcεRI mAb and fMLP).
compound,measurement,setting,value
"CC(C)[C@H](NC(=O)[C@H](CCCCN)NC(=O)[C@H](CC(=O)O)NC(=O)[C@@H](N)CCCNC(=N)N)C(=O)N[C@@H](Cc1ccc(O)cc1)C(=O)N[C@@H](CCCNC(=N)N)C(=O)O [IM, H-Arg-Asp-Lys-Val-Tyr-Arg-OH] (H-RDKVYR-OH)",levels of interleukin-6 (IL-6) and tumor necrosis factor (TNF),patients,decreasing levels
same,histology of the epidermis in healed ear pinna,"BALB/c mice; 42 days after injury, hematoxylin and eosin",signs of parakeratosis
same,mean ear hole area,"BALB/c mice; day 42 post-injury, 2 mm punch, s.c. 5.0 µg/g, 10 injections, mean ± SD, saline control 1.96 ± 0.48",1.69 ± 0.38 mm^2
same,wound closure (ear hole closure),"BALB/c mice; day 42 post-injury, s.c. 5.0 µg/g, 10 injections, mean ± SD, saline control 37.9% ± 14.2%",46.2% ± 12.2% and 46%
same,tissue repair in comparison to control,"BALB/c mice; ear pinna injury, as summarised in the abstract",8%
same,"immunogenic properties (activation of CTL, Th, NK)","CTL, Th and NK cells",no immunogenic properties
same,signal of the IM peptide in plasma after 1 h,"[1]; 300 µM, 37 °C, 1 h, albumins removed with ethanol and centrifugation, HPLC C18, PDA, n=3 (Figure S1)",no longer seen
same,signal of the IM peptide in plasma at time point 0 h,"[1]; mixture without incubation, whole sample preparation (ethanol, centrifugation), HPLC (Figure S2)",barely any signal of peptide
same,level of degranulated cells (basophil activation),basophils,below 5%
